Structures are written as SMILES. In brackets after ≈: the same amount, converted by molar mass. Activity calls are given as the source filed them. No cut-off for these calls is given here.

For orientation: microsomal CLint means the capacity of the preparation to metabolise the compound, expressed as a volume cleared per time. High values mean rapid turnover, low ones slow turnover. Broadly, the half-life is how long it takes for the measured level to halve. Low readings indicate fast loss, high ones slow loss. The term solubility denotes the concentration that dissolves in the medium under given conditions. Low readings indicate little dissolved substance, high ones much dissolved substance. The term clearance denotes the rate of elimination divided by the concentration. Read a high clearance as efficient removal. The term bioavailability denotes the share of a dose that reaches the circulation, judged against a reference dose that is usually intravenous. A high value points to good availability. The term Kp denotes tissue or fluid exposure divided by exposure in the circulation.

Data set [1] is described as follows: Intrinsic clearance in rat microsomes. In kind it is ADME, Microsome.
The nature of data set [2]: Intrinsic clearance in human microsomes. In kind it is ADME, Microsome.
A short description of data set [3]: Half life in Wistar rat at 2 mg/kg, iv. Also on record: dose 2 mg/kg, route intravenous. Type of data set: ADME, organism-based. As to conditions: in vivo.
The nature of data set [4]: Solubility of the compound. In kind it is physicochemical.
The nature of data set [5]: Plasma clearance in Wistar rat at 2 mg/kg, iv. In kind it is ADME, organism-based. Also on record: dose 2 mg/kg, route intravenous.
The nature of data set [6]: Oral bioavailability in Wistar rat at 10 mg/kg. In kind it is ADME, organism-based. The following applies: in vivo.
A short description of data set [7]: Volume of distribution at steady state in Wistar rat at 2 mg/kg, iv. Type of data set: ADME, organism-based. Also on record: dose 2 mg/kg, route intravenous. The following applies: in vivo, read-out: Vdss.
A short description of data set [8]: Ratio of drug level in brain to plasma in Wistar rat. In kind it is ADME.
Data set [9] in a line: Inhibition of GABA receptor.
In data set [10] the test system is Rattus norvegicus. The data set can be described thus: Potentiation of AMPA-induced single unit activity in iv dosed hippocampus of anesthetized rat by electrophysiology assay. Type of data set: functional. As to conditions: read-out: MED.
Data set [11] can be described thus: Inhibition of NMDA receptor.
A short description of data set [12]: Inhibition of kainate receptor.

Regarding `CCN(CC)Cc1cn(CC(=O)Nc2sc3c(c2C(N)=O)CCCC3)nc1C(F)(F)F`, the microsomal CLint in [1] and in data set [2] was more than 270 µL/min/mg in each case.
In turn, `CNCc1cn(CC(=O)Nc2sc3c(c2C(N)=O)CCCC3)nc1C(F)(F)F` showed a half-life in data set [3] of 1.5 h. Besides, the intrinsic clearance (microsomal CLint) was less than 12 µL/min/mg in [1] and 33 µL/min/mg in data set [2]. In data set [4], this compound displayed a solubility of 65 µg/mL (≈ 156 µM). Also, the clearance in data set [5] was 23 mL/min/kg. This compound displayed a bioavailability in [6] of 15%. Besides, the Vd in data set [7] worked out at 2.4 L/kg.
Regarding `O=C(Cn1nc(C(F)(F)F)c2c1CCCC2)Nc1sc2c(c1CO)CCCC2`, the microsomal CLint in data set [1] and in data set [2] was more than 270 µL/min/mg throughout.
For `CNCc1cn(CC(=O)Nc2sc3c(c2C(=O)NC)CCCC3)nc1C(F)(F)F`, the intrinsic clearance (microsomal CLint) in data set [1] is 33 µL/min/mg; in data set [2], 16 µL/min/mg. Besides, in data set [5], the clearance stood at 43 mL/min/kg.
`CNCc1cn(CCC(=O)Nc2sc3c(c2C(N)=O)CCCC3)nc1C(F)(F)F`: the microsomal CLint in data set [1] worked out at 49 µL/min/mg; in data set [2], 89 µL/min/mg.
`CNCc1cn(CC(=O)Nc2sc3c(c2C(N)=O)CCCC3)nc1C(C)(C)C` gave a half-life in [3] of 1.9 h. Also, the intrinsic clearance (microsomal CLint) in data set [1] and in [2] was 15 µL/min/mg in each case. Further, in data set [4], the solubility is 79 µg/mL (≈ 196 µM). The same compound registered a clearance in [5] of 9 mL/min/kg. Besides, the bioavailability in data set [6] turned out to be 16%. For the same compound, the Vd in data set [7] came to 1.1 L/kg.
Take `O=C(Cn1nc(C(F)(F)F)c2c1CCCC2)Nc1sc2c(c1C(=O)N[C@@H]1CCNC1)CCCC2`: the half-life in data set [3] was 3.8 h. The concentration in solution in data set [4] (solubility) was 20 µg/mL (≈ 40.4 µM). Moreover, the Kp in [8] amounted to 1.03. In data set [5], the clearance is 2.3 mL/min/kg. In data set [6], the bioavailability was determined as 4%. The Vd in data set [7] worked out at 0.5 L/kg.
Turning to `NC(=O)c1c(NC(=O)Cn2nc(C(F)(F)F)c3c2CCNC3)sc2c1CCCC2`, the intrinsic clearance (microsomal CLint) in [1] was found to be 33 µL/min/mg; in data set [2], 57 µL/min/mg.
Compound `CCNCc1cn(CC(=O)Nc2sc3c(c2C(N)=O)CCCC3)nc1C(F)(F)F` had a half-life in [3] of 1.1 h. For the same compound, the intrinsic clearance (microsomal CLint) in [1] is less than 19 µL/min/mg; in [2], less than 12 µL/min/mg. The same compound registered a solubility in [4] of 107 µg/mL (≈ 249 µM). The inhibition entry in data set [9], in [11] and in [12] was “inactive” each time. Also, the concentration ratio (Kp) in [8] amounted to 0.05. The same compound yielded a clearance in data set [5] of 15 mL/min/kg. Moreover, the bioavailability in [6] stood at 43%. Besides, the minimal effective dose in [10] was determined as 0.3 mg/kg. The Vd in data set [7] was 0.6 L/kg.

The record behind these values is ChEMBL document CHEMBL1255184, “A novel series of positive modulators of the AMPA receptor: structure-based lead optimization” (Bioorg Med Chem Lett, 2010).
